Calls of active or inactive are those of the source. No cut-off for these calls is given here.
How the values were obtained:
[1] = Competitive binding affinity to Pseudomonas aeruginosa WspR after 5 mins in presence of [32P]-c-di-GMP
[2] = target: T1, Cyclic di-GMP phosphodiesterase RocR (Pseudomonas aeruginosa (strain ATCC 15692 / PAO1 / 1C / PRS 101 / LMG12228), UniProt Q9HX69); test: Competitive binding affinity to Pseudomonas aeruginosa PAO1 His6-tagged RocR expressed in Escherichia coli BL21 (DE3) after 5 mins in presence of [32P]-c-di-GMP
T1 sequence (Q9HX69 whole entry): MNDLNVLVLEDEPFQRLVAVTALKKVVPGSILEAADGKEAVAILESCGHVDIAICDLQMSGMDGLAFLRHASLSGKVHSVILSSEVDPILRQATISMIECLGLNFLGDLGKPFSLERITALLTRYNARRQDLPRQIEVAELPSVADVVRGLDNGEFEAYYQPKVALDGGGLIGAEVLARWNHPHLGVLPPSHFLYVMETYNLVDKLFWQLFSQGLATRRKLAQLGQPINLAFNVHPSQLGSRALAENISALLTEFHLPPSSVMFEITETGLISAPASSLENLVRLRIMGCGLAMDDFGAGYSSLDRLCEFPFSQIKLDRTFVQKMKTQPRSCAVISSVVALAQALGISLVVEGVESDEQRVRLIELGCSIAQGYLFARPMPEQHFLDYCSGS

[3] = Competitive binding affinity to Pseudomonas aeruginosa Alg44 PilZ domain after 5 mins in presence of [32P]-c-di-GMP
[4] = system: Pseudomonas aeruginosa; test: Inhibition of Pseudomonas aeruginosa WspR using [32P]-GTP as substrate at 100 uM after 120 mins by thin layer chromatographic analysis
[5] = system: Pseudomonas aeruginosa PA14; test: Inhibition of Pseudomonas aeruginosa PA14 PvrR using [32P]-GTP as substrate at 100 uM after 120 mins by thin layer chromatographic analysis
[6] = system: Pseudomonas aeruginosa PA14; test: Inhibition of Pseudomonas aeruginosa PA14 diguanylate cyclase PA1107 using [32P]-GTP as substrate at 100 uM after 120 mins by thin layer chromatographic analysis
[7] = target: T2, Cyclic di-GMP phosphodiesterase RocR (Pseudomonas aeruginosa (strain ATCC 15692 / PAO1 / 1C / PRS 101 / LMG12228)) (UniProt Q9HX69); test: Inhibition of Pseudomonas aeruginosa PAO1 His6-tagged RocR expressed in Escherichia coli BL21 (DE3) using [32P]-GTP as substrate at 100 uM after 120 mins by thin layer chromatographic analysis
T2 sequence (whole entry): T1 sequence (Q9HX69 whole entry)

[8] = Allosteric inhibition of Pseudomonas aeruginosa WspR using [32P]-GTP as substrate measured for 1 hr by thin layer chromatographic analysis

IC50 [1]	IC50 [2]	IC50 [3]	inhibition [4]	inhibition [5]	inhibition [6]	inhibition [7]	Ki [8]	Compound
> 100 µM	6.41 µM	> 100 µM						CO[C@@H]1[C@@H]2OP(=O)(O)OC[C@H]3O[C@@H](n4cnc5c(=O)[nH]c(N)nc54)[C@H](OC)[C@@H]3OP(=O)(O)OC[C@H]2O[C@H]1n1cnc2c(=O)[nH]c(N)nc21
> 100 µM	0.02 µM	13.4 µM						Nc1nc2c(ncn2[C@H]2C[C@@H]3OP(=O)(O)OC[C@H]4O[C@@H](n5cnc6c(=O)[nH]c(N)nc65)C[C@@H]4OP(=O)(O)OC[C@H]3O2)c(=O)[nH]1
11 µM	0.72 µM	3.12 µM	Active	inactive	Active	Active	12.6 µM	Nc1nc2c(ncn2[C@@H]2O[C@@H]3COP(=O)(O)O[C@H]4[C@@H](F)[C@H](n5cnc6c(=O)[nH]c(N)nc65)O[C@@H]4COP(=O)(O)O[C@H]3[C@H]2F)c(=O)[nH]1
	0.02 µM							Nc1nc2c(ncn2[C@@H]2O[C@@H]3CO[P@](=O)(O)O[C@H]4[C@@H](O)[C@H](n5cnc6c(=O)[nH]c(N)nc65)O[C@@H]4CO[P@](=O)(O)O[C@H]3[C@H]2O)c(=O)[nH]1
48.9 µM		7.69 µM	Active	inactive	Active	Active	15.4 µM	Nc1nc2c(ncn2[C@@H]2O[C@@H]3COP(=O)(O)O[C@H]4[C@@H](O)[C@H](n5cnc6c(=O)[nH]c(N)nc65)O[C@@H]4COP(=O)(O)O[C@H]3[C@H]2O)c(=O)[nH]1
